According to ChEMBL document CHEMBL1201861, “Genomics of Drug Sensitity in Cancer screening data, Wellcome Trust Sanger Institute”:

Key:
Assay in all cases: cells
HGC-27 = assay type: functional, cell-based, Homo sapiens; details: Homo sapiens, HGC-27;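 note: growth inhibition of human HGC-27 cells, read out in a cell viability assay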
Description: SANGER: Inhibition of human HGC-27 cell growth in a cell viability assay.

NCI-H526 = assay type: functional, cell-based; details: Homo sapiens;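 note: growth inhibition of the human NCI-H526 cell line, measured by a cell viability assay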
Description: SANGER: Inhibition of human NCI-H526 cell growth in a cell viability assay.

SW756 = assay type: functional, cell-based, Homo sapiens; details: Homo sapiens, SW756;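 note: growth inhibition of human SW756 cells, read out with a cell viability assay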
Description: SANGER: Inhibition of human SW756 cell growth in a cell viability assay.

COLO-792 = assay type: functional, cell-based, Homo sapiens; details: Homo sapiens, COLO-792
Description: SANGER: Inhibition of human COLO-792 cell growth in a cell viability assay.

DOHH-2 = assay type: functional, cell-based; details: Homo sapiens;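 note: growth inhibition of human DOHH-2 cells, read out with a cell viability assay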
Description: SANGER: Inhibition of human DOHH-2 cell growth in a cell viability assay.

SK-MEL-30 = assay type: functional, cell-based; details: Homo sapiens;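 note: growth inhibition of SK-MEL-30 cells, determined with a cell viability assay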
Description: SANGER: Inhibition of human SK-MEL-30 cell growth in a cell viability assay.

KU-19-19 = assay type: functional, cell-based, Homo sapiens; details: Homo sapiens, KU-19-19
Description: SANGER: Inhibition of human KU-19-19 cell growth in a cell viability assay.

ES7 = assay type: functional, cell-based, Homo sapiens; details: Homo sapiens, ES7;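 note: growth inhibition of cultured human ES7 cells, read out as cell viability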
Description: SANGER: Inhibition of human ES7 cell growth in a cell viability assay.

SW 954 = assay type: functional, cell-based, Homo sapiens; details: Homo sapiens, SW 954;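 note: growth inhibition of SW954 human cancer cells, read out as cell viability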
Description: SANGER: Inhibition of human SW954 cell growth in a cell viability assay.

HN = assay type: functional, cell-based, Homo sapiens; details: Homo sapiens, HN
Description: SANGER: Inhibition of human HN cell growth in a cell viability assay.

OMC-1 = assay type: functional, cell-based, Homo sapiens; details: Homo sapiens, OMC-1;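 note: growth inhibition of the OMC-1 cell line, measured by a cell viability assay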
Description: SANGER: Inhibition of human OMC-1 cell growth in a cell viability assay.

NCI-H1792 = assay type: functional, cell-based, Homo sapiens; details: Homo sapiens, NCI-H1792;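 note: growth inhibition of human NCI-H1792 cells, read out as cell viability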
Description: SANGER: Inhibition of human NCI-H1792 cell growth in a cell viability assay.

CWR22R = assay type: functional, cell-based, Homo sapiens; details: Homo sapiens, 22Rv1;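 note: growth inhibition of 22Rv1 cells, read out with a cell viability assay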
Description: SANGER: Inhibition of human 22RV1 cell growth in a cell viability assay.

HCT-116 = assay type: functional, cell-based, Homo sapiens; details: Homo sapiens, HCT-116
Description: SANGER: Inhibition of human HCT-116 cell growth in a cell viability assay.

KINGS-1 = assay type: functional, cell-based, Homo sapiens; details: Homo sapiens, KINGS-1;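 note: cell viability assay measuring suppression of KINGS-1 cell growth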
Description: SANGER: Inhibition of human KINGS-1 cell growth in a cell viability assay.

GI-1 = assay type: functional, cell-based, Homo sapiens; details: Homo sapiens, GI-1;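 note: growth inhibition of human GI-1 cells, measured with a cell viability readout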
Description: SANGER: Inhibition of human GI-1 cell growth in a cell viability assay.

YAPC = assay type: functional, cell-based, Homo sapiens; details: Homo sapiens, YAPC;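 note: growth inhibition of YAPC cells, measured with a cell viability assay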
Description: SANGER: Inhibition of human YAPC cell growth in a cell viability assay.

HCC38 = assay type: functional, cell-based, Homo sapiens; details: Homo sapiens, HCC38;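 note: cell viability assay on the human HCC38 cell line, with IC50 marking the concentration that inhibits cell growth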
Description: SANGER: Inhibition of human HCC38 cell growth in a cell viability assay.

K5 = assay type: functional, cell-based, Homo sapiens; details: Homo sapiens, K5
Description: SANGER: Inhibition of human K5 cell growth in a cell viability assay.

NB10 = assay type: functional, cell-based, Homo sapiens; details: Homo sapiens, NB10;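 note: growth inhibition of NB10 cells, read out by a cell viability assay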
Description: SANGER: Inhibition of human NB10 cell growth in a cell viability assay.

NCI-H1650 = assay type: functional, cell-based, Homo sapiens; details: Homo sapiens, NCI-H1650;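 note: growth inhibition of human NCI-H1650 cells measured by a cell viability assay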
Description: SANGER: Inhibition of human NCI-H1650 cell growth in a cell viability assay.

OE19 = assay type: functional, cell-based, Homo sapiens; details: Homo sapiens, OE19;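 note: growth inhibition of OE19 cells, measured through a cell viability read-out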
Description: SANGER: Inhibition of human OE19 cell growth in a cell viability assay.

DSH1 = assay type: functional, cell-based, Homo sapiens; details: Homo sapiens, DSH1;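 note: growth inhibition of human DSH1 cells, measured with a cell viability readout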
Description: SANGER: Inhibition of human DSH1 cell growth in a cell viability assay.

NCI-H2347 = assay type: functional, cell-based, Homo sapiens; details: Homo sapiens, NCI-H2347;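 note: growth inhibition of the cell line, read out with a cell viability assay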
Description: SANGER: Inhibition of human NCI-H2347 cell growth in a cell viability assay.

MFE-280 = assay type: functional, cell-based, Homo sapiens; details: Homo sapiens, MFE-280;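 note: growth inhibition of MFE-280 cells, determined with a cell viability readout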
Description: SANGER: Inhibition of human MFE-280 cell growth in a cell viability assay.

EOL1 = assay type: functional, cell-based; details: Homo sapiens;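 note: growth inhibition of EoL-1 cells, read out by a cell viability assay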
Description: SANGER: Inhibition of human EoL-1-cell cell growth in a cell viability assay.

MLMA = assay type: functional, cell-based, Homo sapiens; details: Homo sapiens, MLMA;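 note: growth inhibition of MLMA cells (human), determined through a cell viability readout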
Description: SANGER: Inhibition of human MLMA cell growth in a cell viability assay.

T-24 = assay type: functional, cell-based, Homo sapiens; details: Homo sapiens, T-24;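 note: growth inhibition of T-24 cells, read out with a cell viability assay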
Description: SANGER: Inhibition of human T-24 cell growth in a cell viability assay.

BB49-HNC = assay type: functional, cell-based, Homo sapiens; details: Homo sapiens, BB49-HNC;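 note: cell viability assay read-out, reported as inhibition of BB49-HNC cell growth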
Description: SANGER: Inhibition of human BB49-HNC cell growth in a cell viability assay.

MFM-223 = assay type: functional, cell-based, Homo sapiens; details: Homo sapiens, MFM-223
Description: SANGER: Inhibition of human MFM-223 cell growth in a cell viability assay.

A204 = assay type: functional, cell-based, Homo sapiens; details: Homo sapiens, A204;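 note: growth inhibition of human A204 cells, read out with a cell viability assay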
Description: SANGER: Inhibition of human A204 cell growth in a cell viability assay.

NH-12 = assay type: functional, cell-based, Homo sapiens; details: Homo sapiens, NH-12;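 note: growth inhibition of NH-12 cells, read out with a cell viability assay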
Description: SANGER: Inhibition of human NH-12 cell growth in a cell viability assay.

TYK-nu = assay type: functional, cell-based, Homo sapiens; details: Homo sapiens, TYK-nu;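 note: growth inhibition of human TYK-nu cells, read out by a cell viability assay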
Description: SANGER: Inhibition of human TYK-nu cell growth in a cell viability assay.

Huh-7 = assay type: functional, cell-based, Homo sapiens; details: Homo sapiens, Huh-7;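 note: HuH-7 cell growth inhibition, read out with a cell viability assay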
Description: SANGER: Inhibition of human HuH-7 cell growth in a cell viability assay.

SK-PN-DW = assay type: functional, cell-based; details: Homo sapiens;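 note: growth inhibition measured with a viability assay on these cells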
Description: SANGER: Inhibition of human SK-PN-DW cell growth in a cell viability assay.

MKN-45 = assay type: functional, cell-based, Homo sapiens; details: Homo sapiens, MKN-45;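 note: growth inhibition of human MKN-45 cells, measured with a cell viability assay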
Description: SANGER: Inhibition of human MKN45 cell growth in a cell viability assay.

KYSE-410 = assay type: functional, cell-based, Homo sapiens; details: Homo sapiens, KYSE-410;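 note: growth inhibition of KYSE-410 cells, measured through a cell viability readout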
Description: SANGER: Inhibition of human KYSE-410 cell growth in a cell viability assay.

BV-173 = assay type: functional, cell-based; details: Homo sapiens
Description: SANGER: Inhibition of human BV-173 cell growth in a cell viability assay.

U-87 MG = assay type: functional, cell-based, U-87MG ATCC; details: Homo sapiens;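 note: growth inhibition of the cells measured with a viability assay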
Description: SANGER: Inhibition of human U-87-MG cell growth in a cell viability assay.

OVCAR-3 = assay type: functional, cell-based, Homo sapiens; details: Homo sapiens, OVCAR-3;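 note: growth inhibition of human OVCAR-3 cells, determined by a cell viability assay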
Description: SANGER: Inhibition of human OVCAR-3 cell growth in a cell viability assay.

COLO-829 = assay type: functional, cell-based, Homo sapiens; details: Homo sapiens, COLO-829
Description: SANGER: Inhibition of human COLO-829 cell growth in a cell viability assay.

CGTH-W-1 = assay type: functional, cell-based, Homo sapiens; details: Homo sapiens, CGTH-W-1;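 note: growth inhibition of human CGTH-W-1 cells measured by cell viability assay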
Description: SANGER: Inhibition of human CGTH-W-1 cell growth in a cell viability assay.

RH-1 = assay type: functional, cell-based, Homo sapiens; details: Homo sapiens, RH-1;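 note: growth inhibition of human RH-1 cells, read out with a cell viability assay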
Description: SANGER: Inhibition of human RH-1 cell growth in a cell viability assay.

MHH-ES-1 = assay type: functional, cell-based, Homo sapiens; details: Homo sapiens, MHH-ES-1;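 note: cell growth inhibition measured by a cell viability assay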
Description: SANGER: Inhibition of human MHH-ES-1 cell growth in a cell viability assay.

LB1047-RCC = assay type: functional, cell-based, Homo sapiens; details: Homo sapiens, LB1047-RCC;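 note: inhibition of cell growth, determined with a cell viability assay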
Description: SANGER: Inhibition of human LB1047-RCC cell growth in a cell viability assay.

ABC-1 = assay type: functional, cell-based, Homo sapiens; details: Homo sapiens, ABC-1;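 note: growth inhibition of human ABC-1 cells, read out by a cell viability assay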
Description: SANGER: Inhibition of human ABC-1 cell growth in a cell viability assay.

COLO-678 = assay type: functional, cell-based, Homo sapiens; details: Homo sapiens, COLO-678
Description: SANGER: Inhibition of human COLO-678 cell growth in a cell viability assay.

ACN = assay type: functional, cell-based, Homo sapiens; details: Homo sapiens, ACN;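 note: growth inhibition of the human ACN cell line, read out via cell viability testing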
Description: SANGER: Inhibition of human ACN cell growth in a cell viability assay.

KM-H2 = assay type: functional, cell-based; details: Homo sapiens;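 note: growth inhibition of KM-H2 cells, read out by a cell viability assay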
Description: SANGER: Inhibition of human KM-H2 cell growth in a cell viability assay.

HO-1-N-1 = assay type: functional, cell-based, Homo sapiens; details: Homo sapiens, HO-1-N-1;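 note: growth inhibition of human HO-1-N-1 cells, read out with a cell viability assay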
Description: SANGER: Inhibition of human HO-1-N-1 cell growth in a cell viability assay.

SMILES: O=C1N=C(NCc2cccs2)S/C1=C\c1ccc2ncccc2c1
- IC50 (HGC-27): > 5 µM
- IC50 (NCI-H526): > 5 µM
- IC50 (SW756): > 5 µM
- IC50 (COLO-792): > 5 µM
- IC50 (DOHH-2): > 5 µM
- IC50 (SK-MEL-30): > 5 µM
- IC50 (KU-19-19): > 5 µM
- IC50 (ES7): > 5 µM
- IC50 (SW 954): > 5 µM
- IC50 (HN): > 5 µM
- IC50 (OMC-1): > 5 µM
- IC50 (NCI-H1792): > 5 µM
- IC50 (CWR22R): > 5 µM
- IC50 (HCT-116): > 5 µM
- IC50 (KINGS-1): > 5 µM
- IC50 (GI-1): > 5 µM
- IC50 (YAPC): > 5 µM
- IC50 (HCC38): > 5 µM
- IC50 (K5): > 5 µM
- IC50 (NB10): > 5 µM
- IC50 (NCI-H1650): > 5 µM
- IC50 (OE19): > 5 µM
- IC50 (DSH1): > 5 µM
- IC50 (NCI-H2347): > 5 µM
- IC50 (MFE-280): > 5 µM
- IC50 (EOL1): > 5 µM
- IC50 (MLMA): > 5 µM
- IC50 (T-24): > 5 µM
- IC50 (BB49-HNC): > 5 µM
- IC50 (MFM-223): > 5 µM
- IC50 (A204): > 5 µM
- IC50 (NH-12): > 5 µM
- IC50 (TYK-nu): > 5 µM
- IC50 (Huh-7): > 5 µM
- IC50 (SK-PN-DW): > 5 µM
- IC50 (MKN-45): > 5 µM
- IC50 (KYSE-410): > 5 µM
- IC50 (BV-173): > 5 µM
- IC50 (U-87 MG): > 5 µM
- IC50 (OVCAR-3): > 5 µM
- IC50 (COLO-829): > 5 µM
- IC50 (CGTH-W-1): > 5 µM
- IC50 (RH-1): > 5 µM
- IC50 (MHH-ES-1): > 5 µM
- IC50 (LB1047-RCC): 3.24 µM
- IC50 (ABC-1): > 5 µM
- IC50 (COLO-678): > 5 µM
- IC50 (ACN): > 5 µM
- IC50 (KM-H2): > 5 µM
- IC50 (HO-1-N-1): > 5 µM

SMILES: CC(=O)O[C@@]12CO[C@@H]1C[C@H](O)[C@@]1(C)C(=O)[C@H](O)C3=C(C)[C@@H](OC(=O)[C@H](O)[C@@H](NC(=O)OC(C)(C)C)c4ccccc4)C[C@@](O)([C@@H](OC(=O)c4ccccc4)[C@H]21)C3(C)C [DOCETAXEL]
- IC50 (HGC-27): 0.000471 µM
- IC50 (NCI-H526): 0.00176 µM
- IC50 (SW756): 0.00216 µM
- IC50 (COLO-792): > 0.01 µM
- IC50 (DOHH-2): 0.0063 µM
- IC50 (SK-MEL-30): 0.00732 µM
- IC50 (KU-19-19): > 0.01 µM
- IC50 (ES7): 0.000389 µM
- IC50 (SW 954): 0.000823 µM
- IC50 (HN): 0.000758 µM
- IC50 (OMC-1): 0.00906 µM
- IC50 (NCI-H1792): 0.00104 µM
- IC50 (CWR22R): 0.00315 µM
- IC50 (HCT-116): 0.00181 µM
- IC50 (KINGS-1): 0.00117 µM
- IC50 (GI-1): 0.000528 µM
- IC50 (YAPC): > 0.01 µM
- IC50 (HCC38): 0.006 µM
- IC50 (K5): 0.000778 µM
- IC50 (NB10): > 0.01 µM
- IC50 (NCI-H1650): > 0.01 µM
- IC50 (OE19): 0.00559 µM
- IC50 (DSH1): > 0.01 µM
- IC50 (NCI-H2347): > 0.01 µM
- IC50 (MFE-280): > 0.01 µM
- IC50 (EOL1): 0.00173 µM
- IC50 (MLMA): 0.00355 µM
- IC50 (T-24): > 0.01 µM
- IC50 (BB49-HNC): 0.00212 µM
- IC50 (MFM-223): 0.00616 µM
- IC50 (A204): 0.00934 µM
- IC50 (NH-12): > 0.01 µM
- IC50 (TYK-nu): 0.00232 µM
- IC50 (Huh-7): > 0.01 µM
- IC50 (SK-PN-DW): 0.00194 µM
- IC50 (MKN-45): 0.00453 µM
- IC50 (KYSE-410): 0.00124 µM
- IC50 (BV-173): 0.0053 µM
- IC50 (U-87 MG): 0.00355 µM
- IC50 (OVCAR-3): 0.00407 µM
- IC50 (COLO-829): 0.00725 µM
- IC50 (CGTH-W-1): 0.000542 µM
- IC50 (RH-1): 0.000386 µM
- IC50 (MHH-ES-1): 0.0007 µM
- IC50 (LB1047-RCC): 0.0088 µM
- IC50 (ABC-1): > 0.01 µM
- IC50 (COLO-678): > 0.01 µM
- IC50 (ACN): 0.00644 µM
- IC50 (KM-H2): > 0.01 µM
- IC50 (HO-1-N-1): 0.000281 µM

SMILES: COc1ccc(C2=N[C@@H](c3ccc(Cl)cc3)[C@@H](c3ccc(Cl)cc3)N2C(=O)N2CCNC(=O)C2)c(OC(C)C)c1 [NUTLIN-3]
- IC50 (HGC-27): > 8 µM
- IC50 (NCI-H526): > 8 µM
- IC50 (SW756): > 8 µM
- IC50 (COLO-792): > 8 µM
- IC50 (DOHH-2): 2.42 µM
- IC50 (SK-MEL-30): > 8 µM
- IC50 (KU-19-19): > 8 µM
- IC50 (ES7): > 8 µM
- IC50 (SW 954): 6.56 µM
- IC50 (HN): > 8 µM
- IC50 (OMC-1): > 8 µM
- IC50 (NCI-H1792): > 8 µM
- IC50 (CWR22R): > 8 µM
- IC50 (HCT-116): 3.3 µM
- IC50 (KINGS-1): > 8 µM
- IC50 (GI-1): > 8 µM
- IC50 (YAPC): > 8 µM
- IC50 (HCC38): > 8 µM
- IC50 (K5): 1.42 µM
- IC50 (NB10): 3.21 µM
- IC50 (NCI-H1650): 7.39 µM
- IC50 (OE19): > 8 µM
- IC50 (DSH1): > 8 µM
- IC50 (NCI-H2347): > 8 µM
- IC50 (MFE-280): > 8 µM
- IC50 (EOL1): 1.27 µM
- IC50 (MLMA): > 8 µM
- IC50 (T-24): > 8 µM
- IC50 (BB49-HNC): > 8 µM
- IC50 (MFM-223): > 8 µM
- IC50 (A204): 3.06 µM
- IC50 (NH-12): 4.02 µM
- IC50 (TYK-nu): > 8 µM
- IC50 (Huh-7): > 8 µM
- IC50 (SK-PN-DW): > 8 µM
- IC50 (MKN-45): > 8 µM
- IC50 (KYSE-410): > 8 µM
- IC50 (BV-173): 2.84 µM
- IC50 (U-87 MG): > 8 µM
- IC50 (OVCAR-3): > 8 µM
- IC50 (COLO-829): 7.24 µM
- IC50 (CGTH-W-1): > 8 µM
- IC50 (RH-1): > 8 µM
- IC50 (MHH-ES-1): > 8 µM
- IC50 (LB1047-RCC): > 8 µM
- IC50 (ABC-1): > 8 µM
- IC50 (COLO-678): > 8 µM
- IC50 (ACN): > 8 µM
- IC50 (KM-H2): 7.89 µM
- IC50 (HO-1-N-1): > 8 µM
